Tested on: lashes and adjacent hairs of the treated eye
Test: Observation of lashes in glaucoma patients treated with bimatoprost in one eye
Type: in vivo
Settings: glaucoma patient treated in only one eye
From the text: In the course of treating patients having glaucoma, treatment may only be appropriate in one eye. […] The lash appearance on the lids of the treated eyes would have appeared quite attractive if it represented a bilateral phenomenon. As a result of its asymmetric nature, the long lashes on one side could be construed as disturbing from a cosmetic standpoint. A systemic examination was preformed as a result of the asymmetric phenomenon. It soon became apparent that this altered appearance was not an isolated finding. […] Definite differences could be identified to varying degrees in the lashes and adjacent hairs of all patients who were taking the drug on a unilateral basis for longer than 6 months.
The changes in the lashes were apparent on gross inspection in several patients once attention was focused on the issue. In those with light colored hair and lashes, the differences were only seen easily with the aid of the high magnification and lighting capabilities of the slit lamp biomicroscope. In the course of glaucoma follow-up examination, attention is generally immediately focused on the eye itself. As a result of the high power magnification needed only one eye is seen at a time and the eye is seen at a high enough power that the lashes are not in focus. […]

CCNC(=O)CCC/C=C\C[C@@H]1[C@@H](/C=C/[C@@H](O)CCc2ccccc2)[C@H](O)C[C@@H]1O [bimatoprost]
lashes in the treated eye compared with the non-treated eye: longer, thicker, and fuller
